Measured values: patent publication US11833154B2, “Methods of treatment of myeloproliferative neoplasm” (priority 2017, dated 2023)

What was measured:
[1] = system: IDH2^R140Q JAK2^V61F mutant cells; assay: Serum 2HG levels in treated transplant recipient mice (LC-MS); format: in vivo; conditions: mice engrafted with IDH2^R140Q JAK2^V617F cells; oral AG221 40-100 mg/kg, ruxolitinib 60 mg per kg, BID; at sacrifice after four weeks; vehicle mean 1874
Experimental: (§1) Dissected femurs and tibias were isolated. Bone marrow was flushed into PBS+2% BSA or RPMI+10% FCS using a syringe or by centrifuge spin. Spleens were isolated and single cell suspensions made by mechanical disruption using glass slides. All harvested cells were passed through a […] strainer. Red blood cells (RBCs) were lysed in ammonium chloride-potassium bicarbonate lysis buffer for 10 min on ice. Cells were transplanted by via tail vein injection into lethally irradiated (2×550 Rad) CD45.1 host mice. For noncompetitive transplants, 1×10^6 total cells were transplanted; for competitive transplants including drug studies, 1×10^6 total donor cells were injected in a mixture with 1×10^6 cells from a congenic CD45.1 donor; for cell of origin transplants, injection number was determined based on the lowest yield after sort to inject approximately 100,000 MPP or 300 LT-HSC with 300,000 whole bone marrow cells from a CD45.1 donor.
2HG was extracted from serum using 80% aqueous methanol, as described by Lu et al., […]. […] All extracts were spun at 13,000 rpm at 4° C. to remove precipitate, dried at room temperature, and stored at −80° C.

[2] = system: JAK2/IDH2-mutant MPN; assay: Therapeutic assay: spleen weight, hematocrit and leukocyte count at sacrifice; format: in vivo, mice; conditions: IDH2^R140Q JAK2^V617F bone marrow recipients, four weeks of treatment; vehicle mean 289.1
Experimental: as §1

[3] = system: JAK2/IDH2-mutant MPN; assay: Bone marrow stem and progenitor populations by FACS in treated recipients; format: in vivo, mice; conditions: for Erythrocyte progenitors: Pre-erythrocytes / Pre-MegE populations / Erythrocyte progenitors: CFU-E / Erythrocyte progenitors: Pre-CFU-E: bone marrow FACS; for Erythrocyte progenitors: Pre-erythrocytes / Pre-MegE populations / Erythrocyte progenitors: CFU-E / Erythrocyte progenitors: Pre-CFU-E / Total LSK number in the bone marrow: four weeks of treatment; for Erythrocyte progenitors: Pre-erythrocytes / Pre-MegE populations: vehicle 0.1757; for Erythrocyte progenitors: CFU-E: vehicle 1.621; for Erythrocyte progenitors: Pre-CFU-E: vehicle mean 0.5189%; for Total LSK number in the bone marrow: double mutant mice, vehicle mean 57.19×10^3
Experimental: as §1
(§2) Cells were stained with antibodies in FACS Buffer (2% Bovine Serum Albumin in phosphate-buffered saline (PBS)) for 30 min on ice. Donor and support chimerism was assessed using antibodies against CD45.1 (Clone A20, Biolegend) and CD45.2 (Clone 104, BioLegend).
Cells were also stained with antibodies specific to c-Kit/CD117 (clone 2B8, BioLegend), Sca-1 (clone D7, BioLegend), FcγRII/III/CD16/32 (clone 2.4G2, eBiosciences) and CD34 (clone RAM34, eBiosciences) or SLAM/CD150 (TC15-12F12.2, BioLegend) and CD48 (HM48-1, eBioscience). To assess mature cell lineages we used a combination of antibodies against Mac1, Gr-1, B220, CD3, cKit/CD117, CD45.1, and CD45.2.
To assess erythroid and megakaryocyte progenitors we stained unlysed tissues with a lineage cocktail including CD4, CD8, B220/CD45R, Mac1/CD11b, Gr-1, IL7R/CD127 (A7R34, BioLegend), CD49b (DX5, BioLegend). Antibodies were also used against c-Kit/CD117, Sca-1, SLAM/CD150, CD48, FcγRII/III/CD16/32, CD41 (eBioMWReg30, eBioscience), CD105 (MJ7/18, BioLegend), CD71 (RI7217, BioLegend), and Ter119 and gated as described by Pronk et al., Elucidation of the Phenotypic, Functional, and Molecular Topography of a Myeloerythroid Progenitor Cell Hierarchy, Cell Stem Cell 2007; 1:428-42.

[4] = system: IDH2^R140Q JAK2^V617F MPN cells (CD45.2^+); assay: Paired donor chimerism in peripheral blood before and after treatment; format: in vivo, mice; conditions: four weeks of treatment, vehicle +4.236
Experimental: as §1, §2

[5] = system: JAK2/IDH2 mutant MPN; assay: Histology of bone marrow and spleen of treated recipients; format: in vivo, mice
Experimental: Pathology was obtained after fixation in 4% paraformaldehyde (PFA); blood smears and bone marrow cytospins were performed on the day of sacrifice. Sections were stained with hematoxylin and eosin stain or Wright Giemsa stain as appropriate. CD34+ staining was performed using CD34, Rat Monoclonal Antibody Performed on a Leica Bond™ RX using the Bond™ Polymer Refine Detection Kit (Cat. No. DS9800). The sections stained with CD34 (Abcam, Cat. Ab8158 diluted 1:50) were pre-treated using heat mediated antigen retrieval with Citrate, pH6 (Leica Biosystem Epitope Retrieval 1, Cat. No. AR9961) for 20 min. DAB was used as the chromogen, counterstained with hematoxylin and mounted.

[6] = system: IDH2^R140Q JAK2^V617F mutant LSK; assay: RNA-sequencing of donor-derived CD45.2 LSK from treated mice (GSEA); format: in vivo
Experimental: Before cell of origin transplants, sorting was performed on bone marrow with enrichment for cKit/CD117-positive cells using CD117 MicroBeads (Miltenyi). For expression analysis, sorting was performed on bone marrow that had been depleted of mature cells using Progenitor Cell Enrichment Kit ([…] Technologies).
CD45.2+ LSK cells were sorted into ice cold FACS Buffer, pelleted, and stored in Triazol until extraction of RNA using phenol-chlorophorm. The library was produced using SMARTer amplification (Clontech) amplify and create the library. Illumina sequencing was performed using Paired-End 50 bp at 40×10^6 reads per sample.

[7] = system: JAK2/IDH2-mutant MPN cell metabolism; assay: LC/MS metabolite analysis of bone marrow aspirates from treated mice; format: in vivo, mouse
Experimental: External mass calibration was performed using the standard calibration mixture every 7 days. […] Buffer A was 20 mM ammonium carbonate, 0.1% ammonium hydroxide; buffer B was acetonitrile. […] The sheath gas flow was set to 40 units, the auxiliary gas flow was set to 15 units, and the sweep gas flow was set to 1 unit. […] Relative quantitation of polar metabolites was performed with XCalibur QuanBrowser 2.2 (Thermo Fisher Scientific) using a 5 ppm mass tolerance and referencing an in-house library of chemical standards.

[8] = system: samples from patients with MPN and Post-MPN AML with IDH2^R140Q and JAK2^V617F mutations; assay: Human colony forming (methylcellulose) assay; format: cell-based; conditions: Methocult H4435, 400 nM
Experimental: Approval was obtained from the Institutional Review Board at Memorial Sloan-Kettering Cancer Center. Tissues were collected in partnership with the Human Oncology Tissue Bank, and all patients provided informed consent. Fresh peripheral blood was collected into heparinized collection tubes, and separation of peripheral blood mononuclear cells (PBMC) was performed using hetastarch and a Ficoll gradient with subsequent red blood cell lysis.
(§3) Frozen or fresh PBMCs were plated in Methocult H4435 (Stem Cell) with penicillin and streptomycin in triplicate wells. MPN patient cells were plated after enrichment using CD34 Microbeads (Miltenyi) at 1,000 cells per well; AML patient cells were plated without enrichment at 100,000 cells per well.

[9] = system: JAK2/IDH2-mutant MPN/AML cells; assay: FACS of cell surface markers on cultured human colony cells; format: cell-based; conditions: cultured patient cells, 400 nM
Experimental: as §3
To observe monocytic and granulocytic differentiation, antibodies against CD117/cKit, CD34, CD38, CD15 (HI98, eBioscience), CD14 (HCD14, BioLegend), and CD16 (3G8, BioLegend) were used.

[10] = CD45.2 LSK RNA-seq, GSEA, p<1e-4
[11] = stem cells of treated mice versus wild type, Hallmark GSEA

Structure (SMILES) | Serum 2HG levels (mean) [1] [ng/mL] | Splenomegaly: spleen weight (mean) [2] [mg] | Erythrocyte progenitors: Pre-erythrocytes [3] | Pre-MegE populations [3] | Erythrocyte progenitors: CFU-E [3] | Erythrocyte progenitors: Pre-CFU-E [3] [%] | Total LSK number in the bone marrow [3] | Mutant donor chimerism, mean change pre- and post-treatment [4] | NES, downregulated genes of the combination-therapy signature also altered by monotherapy [6, 10] | other results
CC(C)(O)CNc1nc(Nc2ccnc(C(F)(F)F)c2)nc(-c2cccc(C(F)(F)F)n2)n1 [AG221, 2-methyl-1-[(4-[6-(trifluoromethyl)pyridin-2-yl]-6-{[2-(trifluoromethyl)pyridin-4-yl]amino}-1,3,5-triazin-2-yl)amino]propan-2-ol] | 744.4 | 188.3 | 0.03906 | 0.03906 | 0.8251 | 0.1913 | 36.43×10^3 | −6.291% | −2.3 | Proportion of CD45.2 myeloid progenitor populations ([3]; donor-derived cells, number of CD45.1 myeloid progenitors not affected): reduced; Aberrant CD34 expression in megakaryocytes ([5]; CD34 immunohistochemical stain of bone marrow): resulted the aberrant CD34 expression seen in megakaryocytes; Expansion of spleen blasts ([5]; histology, compared with untreated JAK2/IDH2 mutant MPN): eliminated the expansion of spleen blasts; NES, upregulated genes of the combination-therapy signature also reversed by monotherapy [6, 10]: +1.9; IL6/JAK/STAT3 gene expression signature [6, 11]: enrichment for expression of genes in this pathway were seen; Interferon gamma signatures [6, 11]: significantly enriched; Oncogenic signatures (cMYC, mTOR, KRAS) [6, 11]: highly significant enrichment; 2HG levels in bone marrow aspirates ([7]; after 10 days of treatment): Reduction; Levels of Kreb's cycle intermediates (α-ketoglutarate, citrate, succinate, fumarate, malate) ([7]; bone marrow aspirates, 10 days of treatment, p<0.0252): reduced; BFU-E colonies [8]: presence of BFU-E colonies; Colony number / colony output ([8]; DMSO controls): increase in colony number; Differentiation markers CD235a / CD14 [9]: upregulation; Surface expression of immature marker cKit/CD117 / proportion of c-Kit positive colonies [9]: reduced
N#CC[C@H](C1CCCC1)n1cc(-c2ncnc3[nH]ccc23)cn1 [ruxolitinib, reference compound] | 1233 | 101.3 | 0.08063 | 0.08063 | 0.5553 | 0.1103 | 20.73×10^3 | +3.256% | −2.2 | –
